# Assay results reported in patent US20170283404A1, “CRYSTALLINE FORMS OF 2-(4-(4-ETHOXY-6-OXO-1,6-DIHYDROPYRIDIN-3-YL)-2-FLUOROPHENYL)-N-(5-(1,1,1-TRIFLUORO-2-METHYLPROPAN-2-YL)ISOXAZOL-3-YL)ACETAMIDE” (GLAXOSMITHKLINE INTELLECTUAL PROPERTY DEVELOPMENT LIMITED, priority 2014, published 2017).
# Test: Drying of crystalline form in vacuum oven (solid-state stability)
# Assay type: physicochemical
# Details: vacuum oven at 50° C. with a nitrogen bleed for about 17 hours
smiles,measurement,value
"CCOc1cc(=O)[nH]cc1-c1ccc(CC(=O)Nc2cc(C(C)(C)C(F)(F)F)on2)c(F)c1 [Compound A—Monohydrate, 2-(4-(4-ethoxy-6-oxo-1,6-dihydropyridin-3-yl)-2-fluorophenyl)-N-(5-(1,1,1-trifluoro-2-methylpropan-2-yl)isoxazol-3-yl)acetamide]",change in form by Raman or XRPD after drying,no change in form
same,change to the water content by TGA after drying,no change to the water content
